The results in this text go back to paper PMC4699463 (2015).

The structures appear in SMILES notation.

Holding throughout (experiment): F-neo fluorescence displacement
In experiment [1] the test system is hsa-miR 335 (RNA, miRNA) UCAAGAGCAAUAACGAAAAAUGUUU/ACAUUUUUCGUUAUUGCUCUUGAUU
To be noted: 25 mM KCl; 10 mM sodium phosphate, 0.05 mM EDTA, pH 6.5; tracer 100 nM F-neo, 100 nM miRNA; per site.

The test system of experiment [2] is hsa-miR 504 (RNA, miRNA) AGACCCUGGUCUGCACUCUAUCUU/GAUAGAGUGCAGACCAGGGUCUUU
To be noted: 25 mM KCl; 10 mM sodium phosphate, 0.05 mM EDTA, pH 6.5; tracer 100 nM F-neo, 50 nM miRNA; per site.

In experiment [3] the test system is pre-hsa-miR 504 (RNA, miRNA) GCUGCUGUUGGGAGACCCUGGUCUGCACUCUAUCUGUAUUCUUACUGAAGGGAGUGCAGGGCAGGGUUUCCCAUACAGAGGGC
To be noted: 25 mM KCl; 10 mM sodium phosphate, 0.05 mM EDTA, pH 6.5; tracer 100 nM F-neo, 16.7 nM pre-miRNA; per site.

Experiment [4] relates to hsa-miR 142 (RNA, miRNA) CAUAAAGUAGAAAGCACUACUUU/AGUAGUGCUUUCUACUUUAUGUU
To be noted: 25 mM KCl; 10 mM sodium phosphate, 0.05 mM EDTA, pH 6.5; tracer 100 nM F-neo, 100 nM miRNA; per site.

A word on the IC50: it is the point on the concentration scale where inhibition reaches its midpoint. A low value points to greater potency in that assay. As to `NC[C@@H]1O[C@H](O[C@H]2[C@@H](O)[C@H](O[C@@H]3[C@@H](O)[C@H](N)C[C@H](N)[C@H]3O[C@H]3O[C@H](CN)[C@@H](O)[C@H](O)[C@H]3N)O[C@@H]2CO)[C@H](N)[C@@H](O)[C@@H]1O`, the IC50 in experiment [1] is reported as 117.4 ± 8.1 nM; in experiment [2], 70.3 ± 1.6 nM; in experiment [3] it was 56.2 ± 2.3 nM; in experiment [4], 95.7 ± 5.6 nM.
